Test results: the supplement of paper PMC10307832

Columns and labels:
Test in all cases: relative viability (nuclei count vs DMSO), 5 days (fraction); higher = more cells survive
AZD5582 + Linsitinib = compound: C[C@@H](C(=O)N[C@@H](C1CCCCC1)C(=O)N2CCC[C@H]2C(=O)N[C@@H]3[C@@H](CC4=CC=CC=C34)OCC#CC#CCO[C@@H]5CC6=CC=CC=C6[C@@H]5NC(=O)[C@@H]7CCCN7C(=O)[C@H](C8CCCCC8)NC(=O)[C@H](C)NC)NC [AZD5582] + C[C@]1(O)C[C@@H](c2nc(-c3ccc4ccc(-c5ccccc5)nc4c3)c3c(N)nccn32)C1 [Linsitinib] (partner 1 µM)
Procedure, shortened: (§1)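 Medians of duplicate plates are given as relative viability. That measure is the nuclei count in treated wells divided by the count in vehicle wells. Counts were taken on 4× images of lung cancer cell lines in 1536-well plates, 5 days after pin-tool dosing the day after seeding with one drug alone or a fixed anchor-drug dose plus five library-drug doses (not always all listed) in √10 steps.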

[1] = compound: Cn1nnc2c(C(N)=O)ncn2c1=O [Temozolomide] + C[C@@H](Oc1cc(-c2cnn(C3CCNCC3)c2)cnc1N)c1c(Cl)ccc(F)c1Cl [Crizotinib] (partner 1 µM)
Procedure, shortened: as §1

[2] = compound: Cn1nnc2c(C(N)=O)ncn2c1=O [Temozolomide] + Nc1nc2[nH]cc(CCc3ccc(C(=O)N[C@@H](CCC(=O)O)C(=O)O)cc3)c2c(=O)[nH]1 [Pemetrexed] (partner 0.2 µM)
Procedure, shortened: as §1

Temozolomide + Olaparib = compound: Cn1nnc2c(C(N)=O)ncn2c1=O [Temozolomide] + O=C(c1cc(Cc2n[nH]c(=O)c3ccccc23)ccc1F)N1CCN(C(=O)C2CC2)CC1 [Olaparib] (partner 8 µM)
Procedure, shortened: as §1

| Cell Line | relative viability (AZD5582 + Linsitinib; first compound 0.001581 µM) | relative viability (AZD5582 + Linsitinib; first compound 0.005 µM) | relative viability (AZD5582 + Linsitinib; first compound 0.01581 µM) | relative viability (AZD5582 + Linsitinib; first compound 0.05 µM) | relative viability ([1]; first compound 0.2 µM) | relative viability ([1]; first compound 0.6325 µM) | relative viability ([1]; first compound 2 µM) | relative viability ([1]; first compound 6.325 µM) | relative viability ([1]; first compound 20 µM) | relative viability ([2]; first compound 0.2 µM) | relative viability ([2]; first compound 0.6325 µM) | relative viability ([2]; first compound 2 µM) | relative viability ([2]; first compound 6.325 µM) | relative viability ([2]; first compound 20 µM) | relative viability (Temozolomide + Olaparib; first compound 0.2 µM) | relative viability (Temozolomide + Olaparib; first compound 0.6325 µM) | relative viability (Temozolomide + Olaparib; first compound 2 µM) | relative viability (Temozolomide + Olaparib; first compound 6.325 µM) | relative viability (Temozolomide + Olaparib; first compound 20 µM) |
| --- | --- | --- | --- | --- | --- | --- | --- | --- | --- | --- | --- | --- | --- | --- | --- | --- | --- | --- | --- |
| CAL-12T | 0.665 | 0.656 | 0.775 | 0.544 | 0.93 | 0.744 | 0.587 | 0.695 | 0.733 | 1.34 | 1.12 | 1.1 | 1.16 | 1.39 | 0.865 | 0.754 | 0.775 | 0.697 | 0.606 |
| NCI-H2126 | 0.666 | 0.709 | 0.715 | 0.745 | 1.05 | 0.984 | 0.974 | 1.07 | 1.05 | 0.573 | 0.653 | 0.762 | 0.666 | 0.67 | 0.875 | 0.903 | 0.852 | 0.921 | 0.831 |
| BEN | 0.718 | 1.01 | 0.91 | 1.09 | 0.649 | 0.858 | 0.814 | 0.815 | 0.717 | 0.801 | 0.92 | 0.936 | 0.741 | 0.841 | 0.891 | 1.05 | 1.21 | 0.736 | 0.401 |
| NCI-H2405 | 0.954 | 0.989 |  | 1 | 0.882 | 0.863 | 0.955 | 0.771 | 0.822 | 1.08 | 1.03 | 1.14 | 1.03 | 0.965 | 0.896 | 0.831 | 0.998 | 0.832 | 0.492 |
| NCI-H2023 | 0.666 | 0.741 | 0.691 | 0.677 | 0.64 | 0.631 | 0.678 | 0.516 | 0.648 | 0.232 | 0.249 | 0.249 | 0.221 | 0.228 | 0.539 | 0.444 | 0.463 | 0.373 | 0.26 |
| COR-L23 | 0.937 | 0.957 | 0.913 | 1.16 | 0.925 | 0.701 | 0.669 | 0.503 | 0.614 | 0.188 | 0.211 | 0.19 | 0.184 | 0.217 | 0.374 | 0.377 | 0.318 | 0.257 | 0.189 |
| EMC-BAC-2 | 0.768 | 0.871 | 0.831 | 0.564 | 0.842 | 0.74 | 0.789 | 0.768 | 0.804 | 0.468 | 0.445 | 0.485 | 0.415 | 0.509 | 0.667 | 0.504 | 0.455 | 0.367 | 0.271 |
| A-427 | 1.01 | 1.04 | 1.12 | 0.955 | 0.927 | 0.775 | 0.815 | 0.594 | 0.428 | 1.01 | 0.919 | 0.957 | 0.783 | 0.549 | 0.681 | 0.729 | 0.672 | 0.47 | 0.325 |
